Reference: publication PMC12030534, “Population Pharmacokinetic Modeling of Total and Unbound Pamiparib in Glioblastoma Patients: Insights into Drug Disposition and Dosing Optimization” (Pharmaceutics, 2025)
Several values for one entry are separate records, joined by “and”; a condition that tells them apart may be missing. Equal values may be shown once. Read-outs that look alike come from different tables or passages of the source. Marks after values point to notes of the source that are not given here.

Columns and labels:
SCLC PDX models = tested on: SCLC PDX models; parameters: method as in PMID 29330466; details: imaging, cited from earlier work
[1] = cited from earlier work
[2] = parameters: method as in PMID 33876576; details: cited from earlier work
PARP [3] = tested on: PARP; parameters: method as in PMID 33264017; details: used as denominator of target engagement ratio; read-out: IC50 for PARP inhibition; cited from earlier work
ABCG2 = tested on: ABCG2; parameters: method as in PMID 32652442, PMID 39575553; details: cited from earlier work
[4] = human liver microsomes; cited from earlier work
P-glycoprotein (P-gp) = tested on: P-glycoprotein (P-gp); parameters: method as in PMID 32652442, PMID 39575553; details: cited from earlier work
[5] = Population PK model of total and unbound pamiparib plasma concentrations in glioblastoma patients (Monolix; bootstrap evaluation); assay type: in vivo, human; parameters: Ka_SD: unit not given here; details: for fraction unbound: oral, 60 mg, read-out: θ4 (Fu); for IIV of CL/F / IIV of Ka / IIV of V/F: (% RSE)
Procedure: The total and unbound pamiparib plasma concentration data used in the population PK analysis were obtained from a phase 0/II study (ClinicalTrials.gov ID: NCT04614909), which enrolled 41 patients with newly diagnosed or recurrent glioblastoma. The protocols were approved by the Institutional Review Board of the Barrow Neurological Institute. Written informed consent was obtained from all participants.
The patients received oral pamiparib (60 mg twice daily) for three days before undergoing surgical tumor resection. Blood samples were collected at predose and at 0.5, 1, 2, 4, 7, and 24 h following the 9th oral dose. Plasma was separated from whole blood by centrifugation at 1000× g and 4 °C for 10 min and then stored at −80 °C until analysis. The total and unbound pamiparib concentrations in plasma samples were quantified using a validated liquid chromatography coupled with tandem mass spectrometry (LC-MS/MS) method.
The population PK model was developed in two steps: (1) basic (structural) model development and (2) covariate model development. All analyses were performed using the nonlinear mixed-effects modeling program MONOLIX version 2024R1 (Lixoft, Antony, France).
The structural model was developed to simultaneously characterize total and unbound pamiparib plasma concentration–time profiles following an oral administration of 9 doses (60 mg, twice daily) in individual glioblastoma patients. A one-compartment model with first-order absorption (without lag time) and first-order elimination was selected to describe the multiple-dose plasma concentration–time data. The primary PK parameters included apparent oral clearance (CL/F), apparent volume of distribution (V/F), absorption rate constant (Ka), and fraction of unbound drug in plasma (Fu). The relationship between total (Cp) and unbound (Cu) drug concentrations was incorporated into the model using the equation Cu = Cp × Fu. All concentration data were log-transformed to stabilize variance and improve model fitting. Population mean PK parameters, interindividual variability, and residual error were assessed in the population PK model. Interindividual variability was modeled using an exponential function, assuming log-normal distribution for all PK parameters.
Various residual error models, including constant, proportional, and combined error models, were evaluated. The combined model, incorporating both proportional and additive error components, was selected as the optimal error model (Equation (1)).(1) yi,j=fti,j,ψi+g(ti,j,ψi,ξ)εi,j Here, ψi is the parameter vector of the structural model f for individual i , and the residual error model is defined by the function g that depends on an additional parameter vector ξ . The residual errors εi,j are standardized Gaussian random variables with a mean of 0 and a standard deviation of 1. In this analysis, the combined error model was defined as g=a+bf^c , where the function g consists of a constant term, a, and a term proportional to the structural model f , with b as the proportionality constant. The parameter vector ξ includes a and b, while c is fixed at 1 by default.
Population mean PK parameters were estimated using the Stochastic Approximation Expectation–Maximization (SAEM) algorithm, a robust method for handling complex nonlinear mixed-effects models. Individual patients’ PK parameter estimates were obtained through post hoc Bayesian estimation, utilizing the conditional distributions derived from the Markov Chain Monte Carlo (MCMC) procedure.
The covariate model was developed using a stepwise approach to systematically identify and incorporate significant covariate effects. Initial screening for potential covariates was conducted using generalized additive modeling (GAM) with R version 4.4.1. The candidate covariates, listed in Table 1, were evaluated based on their relationship with Bayesian-estimated individual pharmacokinetic (PK) parameters from the structural model, including CL/F, V/F, Ka, and Fu. […]

PARP [6] = tested on: PARP; parameters: method as in PMID 23118055; details: cited from earlier work
[7] = cited from earlier work; remark: listed apart in the source
[8] = total pamiparib, base model, 60 mg twice daily oral
[9] = total pamiparib, base model, population mean (% RSE)
[10] = total pamiparib, bootstrap mean
[11] = total pamiparib, final covariate model
[12] = total pamiparib, final covariate model, population mean
[13] = total pamiparib, final covariate model, population mean (% RSE in Table 2)
[14] = unbound pamiparib, base model, population mean (% RSE)
[15] = unbound pamiparib, bootstrap mean
[16] = unbound pamiparib, final covariate model
[17] = unbound pamiparib, final covariate model, population mean
[18] = unbound pamiparib, final covariate model, population mean (% RSE in Table 2)

For O=C(c1cc(Cc2n[nH]c(=O)c3ccccc23)ccc1F)N1CCN(C(=O)C2CC2)CC1 [olaparib], the “dose for complete target engagement” value (SCLC PDX models; ~5-fold of ED50) is listed as 15 mg/kg and the “dose for 50% target engagement (ED50)” value (SCLC PDX models) is listed as 3.17 mg/kg.

In the case of C[C@]12CCCN1CC1=NNC(=O)c3cc(F)cc4[nH]c2c1c34 [pamiparib], the “maximum tolerated dose in monotherapy” value [1] is listed as 60 mg BID, the T1/2 ([1]; first in-human study BGB-290-AU-002) is listed as 13 h and the “fecal excretion, share of total radioactivity” value ([2]; pamiparib and its metabolites) is listed as roughly 27%. The “renal excretion, share of total radioactivity” value ([2]; pamiparib and its metabolites) was “approximately 58%”, the “unchanged pamiparib as share of total radioactivity in plasma” value ([2]; patients with solid tumors) was 67% and the IC50 (PARP [3]) was ~1 nM and 1 nM. For the same molecule, the “substrate of efflux transporter ABCG2” value (ABCG2) was “not a substrate”, the intrinsic clearance [4] was “low” and the “substrate of P-glycoprotein (P-gp) / ABCB1” value (P-glycoprotein (P-gp)) was “not a substrate”. For the same molecule, the fraction unbound ([5]; human, plasma, total pamiparib, base model, population mean (% RSE)) was 0.042, the fraction unbound ([5]; human, plasma, total pamiparib, bootstrap mean) was 0.041 and the fraction unbound ([5]; human, plasma, total pamiparib, final covariate model, population mean (% RSE in Table 2)) was 0.041. It also gave a fraction unbound ([5]; human, plasma, unbound pamiparib, base model, population mean (% RSE)) of 0.042, a fraction unbound ([5]; human, plasma, unbound pamiparib, bootstrap mean) of 0.041 and a fraction unbound ([5]; human, plasma, unbound pamiparib, final covariate model, population mean (% RSE in Table 2)) of 0.042. It also gave a half-life ([5]; human, plasma, glioblastoma patients, 60 mg twice daily oral, read-out: population mean elimination half-life (T1/2) (converted)) of roughly 12 h, a TV_CL/F [5, 8] of 2.73 L/h and a TV_V/F [5, 8] of 44 L. For the same molecule, the TV_KA ([5]; total pamiparib, base model, 60 mg twice daily oral, glioblastoma patients) was 1.64 h⁻¹, the “IIV of CL/F” value ([5]; total pamiparib, base model) was 53 (11) % and the “IIV of Ka” value ([5]; total pamiparib, base model) was 397 (18) %. The “IIV of V/F” value ([5]; total pamiparib, base model) was 53 (16) %, the TV_Fu ([5]; total pamiparib, base model, fraction unbound in plasma) was 0.042 and the “θ1 (Ka)” value [5, 9] was 1.64 (42) h^−1. The “θ2 (V/F)” value [5, 9] was 44 (9.7) L, the “θ3 (CL/F)” value [5, 9] was 2.73 (8.0) L/h and the Fu_SD [5, 10] was 0.11. The Ka_SD [5, 10] was 1.6, the V/F_SD [5, 10] was 0.35 and the “β1 (PCC)” value [5, 10] was 0.0089. The “β2 (Age)” value [5, 10] was −0.017, the “θ2 (V/F)” value [5, 10] was 17 L and the “θ1 (Ka)” value ([5]; total pamiparib, bootstrap mean (500 replicates)) was 1.71 h⁻¹. The TV_KA ([5]; total pamiparib, final covariate model, 60 mg twice daily oral) was 1.58 h⁻¹, the “IIV of CL/F” value [5, 11] was 50% and 50 (11) % and the “IIV of Ka” value [5, 11] was 410 (20) %. The “IIV of V/F” value [5, 11] was 41 (17) %, the TV_V/F ([5]; total pamiparib, final covariate model, at median PCC 111.5) was 44 L and 44 ^† L and the TV_CL/F ([5]; total pamiparib, final covariate model, at median age 60) was 2.59 L/h and 2.59 ^‡ L/h. The TV_Fu ([5]; total pamiparib, final covariate model, fraction unbound in plasma) was 0.041, the Fu_SD [5, 12] was 0.12 and the Ka_SD [5, 12] was 1.7. For the same molecule, the V/F_SD [5, 12] was 0.39, the “θ1 (Ka)” value [5, 13] was 1.58 (42) h^−1 and 1.58 h^−1 and the “θ2 (V/F)” value [5, 13] was 15 (28) L and 15 L. The TV_CL/F ([5]; unbound pamiparib, base model) was 65.0 L/h, the TV_Fu ([5]; unbound pamiparib, base model) was 0.042 and the TV_V/F ([5]; unbound pamiparib, base model) was 1017 L. For the same molecule, the TV_KA ([5]; unbound pamiparib, base model, 60 mg twice daily oral) was 1.55 h⁻¹, the “IIV of CL/F” value ([5]; unbound pamiparib, base model) was 54 (11) % and the “IIV of Ka” value ([5]; unbound pamiparib, base model) was 612 (21) %. For the same molecule, the “IIV of V/F” value ([5]; unbound pamiparib, base model) was 50 (17) %, the “θ1 (Ka)” value [5, 14] was 1.55 (51) h^−1 and the “θ2 (V/F)” value [5, 14] was 1017 (9.1) L. The “θ3 (CL/F)” value [5, 14] was 65.0 (8.2) L/h, the Fu_SD [5, 15] was 0.11 and the Ka_SD [5, 15] was 1.66. The V/F_SD [5, 15] was 0.35, the “β1 (PCC)” value [5, 15] was 0.0083 and the “β2 (Age)” value [5, 15] was −0.016. The “θ2 (V/F)” value [5, 15] was 441 L, the “θ1 (Ka)” value ([5]; unbound pamiparib, bootstrap mean (500 replicates)) was 1.86 h⁻¹ and the TV_Fu [5, 16] was 0.042. The TV_KA [5, 16] was 1.7 h⁻¹, the “IIV of CL/F” value [5, 16] was 52(11) % and the “IIV of Ka” value [5, 16] was 380 (20) %. The “IIV of V/F” value [5, 16] was 41 (19) %, the TV_V/F ([5]; unbound pamiparib, final covariate model, at median PCC 111.5) was 1060 ^† L and the TV_CL/F ([5]; unbound pamiparib, final covariate model, at median age 60) was 62.5 ^‡ L/h. For the same molecule, the Fu_SD [5, 17] was 0.11, the Ka_SD [5, 17] was 1.66 and the V/F_SD [5, 17] was 0.39. The “θ1 (Ka)” value [5, 18] was 1.7 (44) h^−1 and 1.7 h^−1, the “θ2 (V/F)” value [5, 18] was 402 (28) L and 402 L and the PARP trapping potency (PARP [6]; compared with other PARP inhibitors) was “surpassing olaparib and rucaparib but slightly weaker than niraparib and much weaker than talazoparib”. For the same molecule, the LogP [7] was 2.03.

In the case of Cn1ncnc1[C@H]1c2n[nH]c(=O)c3cc(F)cc(c23)N[C@@H]1c1ccc(F)cc1 [talazoparib], the “PARP trapping potency relative to olaparib” value (PARP [6]) is listed as ~ 100 fold.

For oxy-dehydro pamiparib [M3], the metabolite abundance ([2]; human plasma, urine, and feces) is given as “most abundant metabolite”.
